In publication PMC3904841, “Crystal Structures of HIV-1 gp120 Envelope Glycoprotein in Complex with NBD Analogues That Target the CD4-Binding Site” (PLoS ONE, 2014):
Like-named read-outs stand apart in the source and are kept apart here.

Tests used:
[1] = test system: amphotropic murine leukemia virus (A-MLV); conditions: cells infected with A-MLV, cited from earlier work
HIV-1 YU2 virus = conditions: cited from earlier work; for IC50: Cf2Th-CD4/CCR5 cells infected with HIV-1 YU2 virus
gp120 = conditions: cited from earlier work; for Kd: binding affinity for gp120
HIV-1YU2 virus = conditions: cited from earlier work; for Activation of Viral Infectivity: relative, CD4 negative Cf2Th-CCR5 cells; for activation of viral infectivity in CD4-negative cells (in words): summary of Table S1
gp120 coremin = experiment: SPR enhancement of gp120 coremin binding to 17b antibody; set-up: species or system HIV-1; conditions: 100 nM gp120, 0–100 µM compound, 17b captured on CM5 chip
Excerpt: A major undesired trait of NBD analogues as HIV-1 entry inhibitors is their capacity to activate viral infectivity in CD4-negative cells. To understand the underlying mechanisms of activation of HIV-1 infectivity in CD4-negative cells in the presence of select NBD analogues, we asked if the capacity of the four analogues to induce gp120 conformational change to the CD4-bound state might account for observed differences in viral infectivity. To address this question, we employed surface-plasmon resonance (SPR) and measured the capacity of NBD-557, (±)-AS-II-37, (±)-AS-I-261, (±)-MAE-II-167, and (±)-MAE-II-188 to increase the binding affinity of either the minimal core (coremin) or full-length gp120 for the 17b antibody, which recognizes gp120 in the CD4-bound conformation. We chose gp120 coremin over coree for SPR measurement because the coree is already in the CD4 bound conformation, and the effect of these small molecules on 17b-gp120 interaction is undetectable.
Figure 7 NBD analogue binding to gp120 enhances 17b-gp120 interaction. (A–D) 100 nM of gp120 coremin or full-length gp120 in the presence of 0–100 µM of NBD analogues was passed over 17b antibody immobilized on a CM5 chip. The binding of gp120 to 17b increased, in a concentration dependent manner, in response to treatment with the NBD analogues.
SPR experiments were performed using Biacore T100 (GE Healthcare) at 25°C. […] HBS-EP buffer (GE Healthcare) was used for the running buffer. A capture method was used to monitor the enhancement of gp120 binding to 17b by NBD-analogues. […] The running buffer contained 20 mM HEPES, pH 7.4, 150 mM NaCl, 0.05% P-20, and 5% DMSO.

Cf2Th-CD4-CCR5 cells = test system: Cf2Th-CD4-CCR5 cells; set-up: method as in PMID 22497421; conditions: 100 µM; ref [24]; cited from earlier work
[2] = test system: Clade A/E93TH057 gp120 coree; experiment: SPR binding of gp120 coree to immobilized NBD-556 and sCD4; set-up: species or system HIV-1; conditions: ligand on CM5 chip, His 375
Excerpt: (§1) Our structures reveal that Region I and II of the NBD congeners fit deeply within the Phe 43 cavity. As such, mutations that alter the shape of the cavity will also affect binding of the small molecules to gp120. One residue in close proximity to Region I and II of the NBD congeners is Ser 375 (vide supra). […] In several group O, N, or M HIV-1 viruses, Ser 375 of gp120 is replaced with either Met or His. […] However, the rate of Ser 375 to Trp mutation may be counterbalanced because the same mutation is also detrimental to the viruses by predisposing gp120 to adopt the CD4-bound conformation, a state prone to inactivation. Overall, the Phe 43 cavity remains an indispensable target for small molecule inhibitors.
(§2) Figure 8 NBD analogues are unable to bind Ser 375 variants of gp120s. […] Ser 375 was shown in the NBD-557 bound cavity. […] NBD-557 modeled into the Phe 43 cavity of clade A/E gp120 clashes with His 375. […] Met 375 modeled into NBD-557-bound YU2 gp120 clashes with NBD-557. […] NBD-557 clashes with Trp 375 in the Phe 43 cavity.

[3] = test system: Clade AKER2008 gp120 coree; experiment: as above; set-up: species or system HIV-1; conditions: ligand on CM5 chip, Met 375
Excerpt: as §1, §2

[4] = test system: Clade CRF34_1OUR2478P gp120 coree; experiment: as above; set-up: species or system HIV-1; conditions: ligand on CM5 chip, Trp 375
Excerpt: as §1, §2

[5] = test system: full-length gp120 variants possessing the Ser 375 to Trp mutation (S375W); set-up: method as in PMID 19000821; conditions: ref [21]; cited from earlier work
[6] = test system: virus expressing the S375W Env gp120; set-up: method as in PMID 19000821; conditions: virus expressing S375W Env gp120 incubated with target cells; ref [21]; cited from earlier work
[7] = test system: laboratory-adapted HIV-1IIIB strain; set-up: method as in Zhao et al. [18]; conditions: printed in the HIV-1 YU2 column, but determined in laboratory-adapted HIV-1IIIB strain; ref Zhao et al. [18]; cited from earlier work
[8] = HIV-1YU2, normalized to 2 (NBD-557), ref [24,27]
[9] = HIV-1YU2, normalized to N-(4-Chloro-3-Fluorophenyl)-N'-(1,2,2,6,6-Pentamethylpiperidin-4-yl)ethanediamide, ref [24,27]
[10] = HIV-1YU2, normalized to 1 (NBD-556), ref Madani et al. [21]

| Compound | IC50 ([1]; ref [24,27]) [µM] | IC50 (HIV-1 YU2 virus; ref [24,27]) [µM] | Kd (gp120; ref [24,27]) [µM] | Activation of Viral Infectivity (HIV-1YU2 virus; [8]) | enhancement of gp120 coremin binding to 17b (gp120 coremin) | also measured |
| --- | --- | --- | --- | --- | --- | --- |
| CC1(C)O[C@@H](CN)[C@H](CNC(=O)C(=O)Nc2ccc(Cl)c(F)c2)O1 (relative stereo) [AS-I-261] | 94.4 | 76.6 | 2.6 | 1.5 | equally enhanced | activation of viral infectivity in CD4-negative cells (in words) (HIV-1YU2 virus; ref [24,27]): activated viral infectivity |
| O=C(NC[C@@]12CCC[C@@H]1CNC2)C(=O)Nc1ccc(Cl)c(F)c1 (relative stereo) [MAE-II-167] | 93.1 | 68.3 | 3.1 | 0.0 | equally enhanced |  |
| O=C(NCC1NCCc2ccccc21)C(=O)Nc1ccc(Cl)c(F)c1 (centres unmarked) [AS-II-37] | > 100 | 50.4 | 1.2 | 0.6 | somewhat reduced enhancement |  |
| N=C(N)N[C@@H]1Cc2ccccc2[C@H]1NC(=O)C(=O)Nc1ccc(Cl)c(F)c1 [AWS-I-169] | > 100 | 21.3 | 0.3 |  |  | Activation of Viral Infectivity (HIV-1YU2 virus; [9]): 0.0 |
| COc1ccnc2[nH]cc(C(=O)C(=O)N3CCN(C(=O)c4ccccc4)C[C@H]3C)c12 [BMS-806, reference compound] |  |  |  |  | did not enhance |  |
| N=C(N)N[C@H]1Cc2ccccc2[C@@H]1NC(=O)C(=O)Nc1ccc(Cl)c(F)c1 [DMJ-I-228] | > 100 | 22.9 | 0.25 |  |  | Activation of Viral Infectivity (HIV-1YU2 virus; [9]): 0.0; activation of viral infectivity in CD4-negative cells (in words) (HIV-1YU2 virus; ref [24,27]): did not; effect on cell growth dynamics (cytotoxicity) (Cf2Th-CD4-CCR5 cells): does not alter the cell growth dynamics |
| N=C(N)NC[C@H]1Cc2ccccc2[C@@H]1NC(=O)C(=O)Nc1ccc(Cl)c(F)c1 [DMJ-II-121] | > 100 | 2.3 | 0.11 |  |  | Activation of Viral Infectivity (HIV-1YU2 virus; HIV-1YU2, normalized to 1 (NBD-556), ref [24,27]): 0.0 |
| CC1(C)CC(NC(=O)C(=O)Nc2ccc(Cl)c(F)c2)CC(C)(C)N1 [JRC-II-191] |  |  |  |  |  | IC50 ([1]; ref Madani et al. [21]): > 100 µM; IC50 (HIV-1 YU2 virus; ref Madani et al. [21]): 54.4 µM; inhibition of HIV-1YU2 infection of cells expressing CD4 and CCR5 (HIV-1 YU2 virus; compared with NBD-556, ref [21], [27]): more potently than NBD-556; enhancement of binding affinity for YU2 gp120 (gp120; para-chloro, meta-fluoro aromatic ring, compared with NBD-556, ref [21], [27]): 5 fold; Activation of Viral Infectivity (HIV-1YU2 virus; [10]): 1.9 ± 0.2 |
| O=C(NCC1CCN(C2CC2)C1)C(=O)Nc1ccc(Cl)c(F)c1 (centres unmarked) [MAE-II-188] | > 100 |  |  | 0.3 | equally enhanced |  |
| CC1(C)CC(NC(=O)C(=O)Nc2ccc(Cl)cc2)CC(C)(C)N1 [NBD-556] |  |  |  |  |  | binding of gp120 coree to immobilized ligand [2]: does not show detectable binding; binding of gp120 coree to immobilized ligand [3]: does not bind; binding of gp120 coree to immobilized ligand [4]: does not bind; IC50 ([1]; ref Madani et al. [21]): > 100 µM; IC50 (HIV-1 YU2 virus; ref Madani et al. [21]): > 100 µM; Activation of Viral Infectivity (HIV-1YU2 virus; [10]): 1.0 ± 0.1; binding to S375W full-length gp120 [5]: inefficiently bind |
| CC1(C)CC(NC(=O)C(=O)Nc2ccc(Br)cc2)CC(C)(C)N1 [NBD-557, reference compound] |  |  |  |  |  | enhancement of CD4-independent viral entry [6]: does not enhance; Kd (gp120; ref Madani et al. [21]): 2.2 µM; Activation of Viral Infectivity (HIV-1YU2 virus; [10]): 0.9 ± 0.4; IC50 [7]: 3.08 µM |
